Assay results reported in US10570179B2, “Substituted urea depsipeptide analogs as activators of the CLPP endopeptidase” (priority 2016, dated 2020).
≈ marks a conversion by molar mass, not a printed value. Read-outs that look alike come from different tables or passages of the source. Numbered stars: 1 amine (or outer) side, 2 acyl side, 3 side chain; on linkers, the order of the positions; unused ones are H or OH. Bridge positions count the residues as written; N and C are the ends. Square brackets hold non-standard residues; d marks the D form. Peptide text beside a SMILES is read from it. * marks the point of attachment. Phe(3-Me) = Cc1cccc(C[C@H](N)C(=O)O)c1; Hyp = O=C(O)[C@@H]1C[C@@H](O)CN1; NH(3-Cl-phenyl) = Clc1cccc(N*)c1; aThr = C[C@H](O)[C@H](N)C(=O)O; Pip = O=C(O)[C@@H]1CCCCN1; CO = O=C([*:1])[*:2]

Experiments:
S. aureus ClpP (Sa-ClpP) = target: T1, S. aureus ClpP (Sa-ClpP) (Staphylococcus aureus, UniProt Q2G036); test: Casein-BODIPY digestion assay (ClpP activation); assay type: biochemical
T1 construct: made in house; host or cells: E. coli BL21 (DE3)
Procedure: The compounds were assayed in a casein digestion assay in order to determine their effect on ClpP activation. Briefly, the assay was carried out using S. aureus ClpP (“Sa-ClpP”) overexpressed in E. coli BL21 (DE3) and purified in a two-step process. Purity of the protein was assessed through SDS PAGE analysis. EC50 evaluations were conducted in triplicate in a 20 μl assay format using a method adapted from Maurizi et al. (Methods Enzymol. (1994) 244:314-331). Each well contained 10 μM saClpP, 25 μg/ml BODIPY FL casein (Invitrogen Corporation, San Diego, Calif.), and test compound in concentrations ranging between 0-1000 μM in assay buffer (50 mM Tris pH 8, 200 mM KCl, and 1 mM TCEP). The reaction took place at 37° C. Fluorescence (excitation 485 nm; emission 528 nm) was measured in five minute intervals over a 45 min period using a BioTek HT fluorescence microplate reader (BioTek Instruments, Inc., Winooski, Vt.). Velocity of each reaction was calculated and data was fit to a dose response curve using GraphPad Prism® software (GraphPad Software, Inc., La Jolla, Calif.). EC50 is the effective concentration of compound which causes 50% activation of S. aureus ClpP in the foregoing BODIPY FL casein assay.
Alternatively, the assay was carried out using EnzCheck Protease Assay (Molecular Probes, Catalog # E6638). The assay was performed in black 384 well, flat bottom, low volume plates (Greiner Bio-One, Monroe, N.C., catalog #784076). 10 μL of Tris.HCl buffer, pH 8.0 with 0.01% Triton X-100 was pipetted into each well using a Well-Mate (Thermo Scientific, Waltham, Mass.). 0.4 μL test compounds or controls (2% DMSO v/v) were added to each well using a Biomek FX liquid handling robot (Beckman Coulter, Indianapolis, Ind.). After addition of test compounds and controls, 10 μL of master mix containing 2 μM Sa-ClpP and 2 μM substrate (Bodipy-FL labeled casein) in Tris.HCl buffer, pH 8.0 with 0.01% (v/v) Triton X-100, was pipetted into each well. All assays were performed in triplicate, under linear velocity conditions. Increase in fluorescent signal following activation of Sa-ClpP by test compounds and controls was measured over time period of 30 mins using filters with excitation at 485±15 nm and emission at 520±25 nm on a PHERAstar FS Multilabel reader (BMG, Cary, N.C.). Instrument gains and enzyme linear velocity conditions were determined and validated using ADEP4, a known Sa-ClpP activator. Data analysis was done by measuring rate of casein degradation over time (slopes). Computed degradation rates (slopes) were normalized to positive (ADEP4) or negative (DMSO) controls. Using nonlinear regression curve fitting EC50 values and % activation were determined using the equation “log [agonist] vs. Response-variable slope (four parameters)-symmetrical” in the program Prism 6 (GraphPad Software, La Jolla, Calif. USA, www.graphpad.com).

E. faecails = test: Minimal inhibitory concentration, microbroth dilution; assay type: cell-based; conditions: Enterococcus faecalis
Procedure: (§1) Minimal inhibitory concentrations (“MICs”) were determined using the microbroth dilution method according to Clinical Laboratory Standards Institute (CLSI; National, C.F. C. L. S., Methods for Dilution Antimicrobial Susceptibility Tests for Bacteria Grow aerobically-Seventh Edition: Approved Standard M7-A7, CLSI, Wayne, Pa., USA, 2008) and were read by visual inspection. Two fold serial dilutions of test compound in 100 μL of the appropriate broth media were first prepared in 96-well round bottom microtiter plates (Nalgene Nunc International, Rochester, N.Y., USA). An equivalent volume (100 μL) of bacterial broth inocula containing approximately 10^5 bacterial cfu/mL was added to each well to give final concentrations of test compound starting at 200 μM. The plates were then incubated aerobically at 37° C. All strains were incubated overnight. After incubations, in all cases the MIC was recorded as the lowest concentration of drug that prevented bacterial growth. The bacterial strains for which MIC was determined as described in Table 4.

MRSA NRS70 = test: as above; assay type: cell-based; conditions: Staphylococcus aureus
Procedure: as §1

S. aureus USA 300 = test: as above; assay type: cell-based; conditions: Staphylococcus aureus
Procedure: as §1

S. aureus ATCC 29213 = test: as above; assay type: cell-based; conditions: Staphylococcus aureus
Procedure: as §1

S. aureus ΔClpP = test: as above; assay type: cell-based, Staphylococcus aureus; conditions: MIC; ClpP inactivated
Procedure: as §1

[1] = MIC, read-out: Minimal Inhibitory Concentrations (μM) E. faecails
[2] = MIC, read-out: Minimal Inhibitory Concentrations (μM) MRSA NRS70
[3] = USA300, MIC, read-out: Minimal Inhibitory Concentrations (μM) S. aureus USA 300
[4] = ATCC29213, MIC, read-out: Minimal Inhibitory Concentrations (μM) S. aureus ATCC 29213
[5] = read-out: Minimal Inhibitory Concentrations (μM) E. faecails, MIC
[6] = read-out: Minimal Inhibitory Concentrations (μM) MRSA NRS70, MIC
[7] = USA300, read-out: Minimal Inhibitory Concentrations (μM) S. aureus USA 300, MIC
[8] = ATCC29213, read-out: Minimal Inhibitory Concentrations (μM) S. aureus ATCC 29213, MIC

T1 sequence (Q2G036 whole entry): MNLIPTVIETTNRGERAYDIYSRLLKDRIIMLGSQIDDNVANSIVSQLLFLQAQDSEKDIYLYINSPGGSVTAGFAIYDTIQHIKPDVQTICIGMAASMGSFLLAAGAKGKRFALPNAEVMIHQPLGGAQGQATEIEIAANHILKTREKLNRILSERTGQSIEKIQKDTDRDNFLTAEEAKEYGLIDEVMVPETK

CCc1ccc(NC(=O)N[C@@H](Cc2cccc(C)c2)C(=O)N[C@H]2COC(=O)[C@@H]3C[C@H](C)CN3C(=O)[C@H](C)NC(=O)[C@@H]3CCCCN3C(=O)[C@@H]3CCCN3C2=O)cc1 [Compound 52, (S)—N-((2S,6S,8AS,14AS,20S,23AS)-2,6-DIMETHYL-5,8,14,19,23-PENTAOXOOCTADECAHYDRO-1H,5H,14H,19H-PYRIDO[2,1-I]DIPYRROLO[2,1-C:2′,1′-L][1]OXA[4,7,10,13]TETRAAZACYCLOHEXADECIN-20-YL)-2-(3-(4-ETHYLPHENYL)UREIDO)-3-(M-TOLYL)PROPANAMIDE]
EC50 (S. aureus ClpP (Sa-ClpP)): 220 ± 100 nM | MIC (E. faecails; [1]): 0.313 µM (≈ 0.246 µg/mL) | MIC (MRSA NRS70; [2]): 0.313 µM (≈ 0.246 µg/mL) | MIC (S. aureus USA 300; [3]): 0.625 µM (≈ 0.491 µg/mL) | MIC (S. aureus ATCC 29213; [4]): 0.625 µM (≈ 0.491 µg/mL) | Minimal Inhibitory Concentrations (μM) S. aureus ΔClpP (S. aureus ΔClpP): >20 µM

Cc1cccc(C[C@H](NC(=O)Nc2ccc(Cl)cc2)C(=O)N[C@H]2COC(=O)[C@@H]3C[C@H](C)CN3C(=O)[C@H](C)NC(=O)[C@@H]3CCCCN3C(=O)[C@@H]3CCCN3C2=O)c1 [Compound 53, (S)-2-(3-(4-CHLOROPHENYL)UREIDO)-N-((2S,6S,8AS,14AS,20S,23AS)-2,6-DIMETHYL-5,8,14,19,23-PENTAOXOOCTADECAHYDRO-1H,5H,14H,19H-PYRIDO[2,1-I]DIPYRROLO[2,1-C:2′,1′-L][1]OXA[4,7,10,13]TETRAAZACYCLOHEXADECIN-20-YL)-3-(M-TOLYL)PROPANAMIDE]
EC50 (S. aureus ClpP (Sa-ClpP)): 670 ± 300 nM | MIC (E. faecails; [5]): 5 µM (≈ 3.96 µg/mL) | MIC (MRSA NRS70; [6]): 1.25 µM (≈ 0.99 µg/mL) | MIC (S. aureus USA 300; [7]): 2.5 µM (≈ 1.98 µg/mL) | MIC (S. aureus ATCC 29213; [8]): 1.25 µM (≈ 0.99 µg/mL) | Minimal Inhibitory Concentrations (μM) S. aureus ΔClpP (S. aureus ΔClpP): >20 µM

Cc1cccc(C[C@H](NC(=O)Nc2cccc(Cl)c2)C(=O)N[C@H]2COC(=O)[C@@H]3C[C@H](C)CN3C(=O)[C@H](C)NC(=O)[C@@H]3CCCCN3C(=O)[C@@H]3CCCN3C2=O)c1 [Compound 54, (S)-2-(3-(3-CHLOROPHENYL)UREIDO)-N-((2S,6S,8AS,14AS,20S,23AS)-2,6-DIMETHYL-5,8,14,19,23-PENTAOXOOCTADECAHYDRO-1H,5H,14H,19H-PYRIDO[2,1-I]DIPYRROLO[2,1-C:2′,1′-L][1]OXA[4,7,10,13]TETRAAZACYCLOHEXADECIN-20-YL)-3-(M-TOLYL)PROPANAMIDE]
EC50 (S. aureus ClpP (Sa-ClpP)): 1540 ± 1400 nM | MIC (E. faecails; [5]): 10 µM (≈ 7.92 µg/mL) | MIC (MRSA NRS70; [6]): 5 µM (≈ 3.96 µg/mL) | MIC (S. aureus USA 300; [7]): > 20 µM | MIC (S. aureus ATCC 29213; [8]): > 20 µM | Minimal Inhibitory Concentrations (μM) S. aureus ΔClpP (S. aureus ΔClpP): >20 µM

CCc1ccc(NC(=O)N[C@@H](Cc2cccc(C)c2)C(=O)N[C@H]2COC(=O)[C@@H]3CCCN3C(=O)[C@H](C)NC(=O)[C@@H]3CCCCN3C(=O)[C@@H]3C[C@@H](O)CN3C2=O)cc1 [Compound 55, (S)-2-(3-(4-ETHYLPHENYL)UREIDO)-N-((6S,8AS,14AS,16R,20S,23AS)-16-HYDROXY-6-METHYL-5,8,14,19,23-PENTAOXOOCTADECAHYDRO-1H,5H,14H,19H-PYRIDO[2,1-I]DIPYRROLO[2,1-C:2′,1′-L][1]OXA[4,7,10,13]TETRAAZACYCLOHEXADECIN-20-YL)-3-(M-TOLYL)PROPANAMIDE]
EC50 (S. aureus ClpP (Sa-ClpP)): 1050 ± 1000 nM | MIC (E. faecails; [1]): 2.5 µM (≈ 1.97 µg/mL) | MIC (MRSA NRS70; [2]): 2.5 µM (≈ 1.97 µg/mL) | MIC (S. aureus USA 300; [3]): 2.5 µM (≈ 1.97 µg/mL) | MIC (S. aureus ATCC 29213; [4]): 5 µM (≈ 3.94 µg/mL) | Minimal Inhibitory Concentrations (μM) S. aureus ΔClpP (S. aureus ΔClpP): >20 µM

Cc1cccc(C[C@H](NC(=O)Nc2ccc(Cl)cc2)C(=O)N[C@H]2COC(=O)[C@@H]3CCCN3C(=O)[C@H](C)NC(=O)[C@@H]3CCCCN3C(=O)[C@@H]3C[C@@H](O)CN3C2=O)c1 [Compound 56, (S)-2-(3-(4-CHLOROPHENYL)UREIDO)-N-((6S,8AS,14AS,16R,20S,23AS)-16-HYDROXY-6-METHYL-5,8,14,19,23-PENTAOXOOCTADECAHYDRO-1H,5H,14H,19H-PYRIDO[2,1-I]DIPYRROLO[2,1-C:2′,1′-L][1]OXA[4,7,10,13]TETRAAZACYCLOHEXADECIN-20-YL)-3-(M-TOLYL)PROPANAMIDE]
EC50 (S. aureus ClpP (Sa-ClpP)): 1330 ± 2500 nM | MIC (E. faecails; [5]): 2.5 µM (≈ 1.99 µg/mL) | MIC (MRSA NRS70; [6]): 10 µM (≈ 7.94 µg/mL) | MIC (S. aureus USA 300; [7]): 2.5 µM (≈ 1.99 µg/mL) | MIC (S. aureus ATCC 29213; [8]): 5 µM (≈ 3.97 µg/mL) | Minimal Inhibitory Concentrations (μM) S. aureus ΔClpP (S. aureus ΔClpP): >20 µM

Cc1cccc(C[C@H](NC(=O)Nc2cccc(Cl)c2)C(=O)N[C@H]2COC(=O)[C@@H]3CCCN3C(=O)[C@H](C)NC(=O)[C@@H]3CCCCN3C(=O)[C@@H]3C[C@@H](O)CN3C2=O)c1 [Compound 57, (S)-2-(3-(3-CHLOROPHENYL)UREIDO)-N-((6S,8AS,14AS,16R,20S,23AS)-16-HYDROXY-6-METHYL-5,8,14,19,23-PENTAOXOOCTADECAHYDRO-1H,5H,14H,19H-PYRIDO[2,1-I]DIPYRROLO[2,1-C:2′,1′-L][1]OXA[4,7,10,13]TETRAAZACYCLOHEXADECIN-20-YL)-3-(M-TOLYL)PROPANAMIDE]
EC50 (S. aureus ClpP (Sa-ClpP)): 1880 ± 2400 nM | MIC (E. faecails; [5]): 10 µM (≈ 7.94 µg/mL) | MIC (MRSA NRS70; [6]): 10 µM (≈ 7.94 µg/mL) | MIC (S. aureus USA 300; [7]): 10 µM (≈ 7.94 µg/mL) | MIC (S. aureus ATCC 29213; [8]): 20 µM (≈ 15.9 µg/mL) | Minimal Inhibitory Concentrations (μM) S. aureus ΔClpP (S. aureus ΔClpP): >20 µM

Cc1cccc(C[C@H](NC(=O)Nc2cccc(Cl)c2)C(=O)N[C@@H]2C(=O)N3C[C@H](O)C[C@H]3C(=O)N3CCCC[C@H]3C(=O)N[C@@H](C)C(=O)N3CCC[C@H]3C(=O)O[C@H]2C)c1 [Compound 60, (S)-2-(3-(3-CHLOROPHENYL)UREIDO)-N-((6S,8AS,14AS,16R,20S,21S,23AS)-16-HYDROXY-6,21-DIMETHYL-5,8,14,19,23-PENTAOXOOCTADECAHYDRO-1H,5H,14H,19H-PYRIDO[2,1-I]DIPYRROLO[2,1-C:2′,1′-L][1]OXA[4,7,10,13]TETRAAZACYCLOHEXADECIN-20-YL)-3-(M-TOLYL)PROPANAMIDE] ({NH(3-Cl-phenyl)-CO}-[Phe(3-Me)][aThr][Hyp][Pip]AP; ester 2-C)
EC50 (S. aureus ClpP (Sa-ClpP)): 1470 ± 1100 nM | MIC (E. faecails; [5]): > 20 µM | MIC (MRSA NRS70; [6]): 5 µM (≈ 4.04 µg/mL) | MIC (S. aureus USA 300; [7]): 10 µM (≈ 8.08 µg/mL) | MIC (S. aureus ATCC 29213; [8]): > 20 µM
